Measured values as given in ChEMBL document CHEMBL3871290, “3-Cyano-6-(5-methyl-3-pyrazoloamino) pyridines (Part 2): A dual inhibitor of Aurora kinase and tubulin polymerization” (Bioorg Med Chem Lett, 2016).

Key:
Mus musculus = experiment: Toxicity in mouse allografted subcutaneously with mouse CT26 cells assessed as mortality at 30 mg/kg, ip qd for 14 days; assay type: organism-based; conditions: in vivo, 336 h
[1] = Antitumor activity against mouse CT26 cells allografted subcutaneously in mouse assessed as tumor growth inhibition at 25 mg/kg, ip qd for 14 days; assay type: functional; conditions: CT26, 336 h, read-out: TGI
Cytochrome P450 2C19 = Cytochrome P450 2C19 (Homo sapiens, UniProt P33261); experiment: Inhibition of CYP2C19 (unknown origin); assay type: ADME
Chain of Cytochrome P450 2C19 (P33261 whole entry): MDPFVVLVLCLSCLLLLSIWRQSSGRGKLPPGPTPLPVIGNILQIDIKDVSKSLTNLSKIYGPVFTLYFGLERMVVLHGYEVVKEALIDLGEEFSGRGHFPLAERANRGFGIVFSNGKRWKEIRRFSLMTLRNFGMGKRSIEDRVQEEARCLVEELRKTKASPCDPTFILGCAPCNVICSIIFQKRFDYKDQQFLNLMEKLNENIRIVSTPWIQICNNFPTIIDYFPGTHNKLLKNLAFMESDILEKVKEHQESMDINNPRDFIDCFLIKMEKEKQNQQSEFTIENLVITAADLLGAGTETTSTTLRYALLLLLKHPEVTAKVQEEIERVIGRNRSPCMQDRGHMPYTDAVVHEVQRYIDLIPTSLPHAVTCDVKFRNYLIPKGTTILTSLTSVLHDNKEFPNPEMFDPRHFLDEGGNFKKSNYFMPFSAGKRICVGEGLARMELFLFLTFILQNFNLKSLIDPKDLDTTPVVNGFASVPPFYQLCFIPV

Cytochrome P450 2C9 = Cytochrome P450 2C9 (Homo sapiens, UniProt P11712); experiment: Inhibition of CYP2C9 (unknown origin); assay type: ADME
Chain of Cytochrome P450 2C9 (P11712 whole entry): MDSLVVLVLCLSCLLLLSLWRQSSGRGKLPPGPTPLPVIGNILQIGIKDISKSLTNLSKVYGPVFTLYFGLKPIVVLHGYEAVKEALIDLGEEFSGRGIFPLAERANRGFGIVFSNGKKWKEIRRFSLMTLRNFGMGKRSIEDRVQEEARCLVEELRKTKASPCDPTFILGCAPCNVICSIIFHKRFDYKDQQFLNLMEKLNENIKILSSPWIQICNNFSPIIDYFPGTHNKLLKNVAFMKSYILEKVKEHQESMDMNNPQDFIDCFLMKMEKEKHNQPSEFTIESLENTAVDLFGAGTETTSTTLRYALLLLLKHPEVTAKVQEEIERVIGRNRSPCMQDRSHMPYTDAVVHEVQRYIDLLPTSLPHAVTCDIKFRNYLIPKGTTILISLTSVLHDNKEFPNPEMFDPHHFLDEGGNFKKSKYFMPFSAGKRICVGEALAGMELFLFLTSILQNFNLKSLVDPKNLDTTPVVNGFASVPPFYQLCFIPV

Cytochrome P450 3A4 = Cytochrome P450 3A4 (Homo sapiens, UniProt P08684); experiment: Inhibition of CYP3A4 (unknown origin); assay type: ADME
Chain of Cytochrome P450 3A4 (P08684 whole entry): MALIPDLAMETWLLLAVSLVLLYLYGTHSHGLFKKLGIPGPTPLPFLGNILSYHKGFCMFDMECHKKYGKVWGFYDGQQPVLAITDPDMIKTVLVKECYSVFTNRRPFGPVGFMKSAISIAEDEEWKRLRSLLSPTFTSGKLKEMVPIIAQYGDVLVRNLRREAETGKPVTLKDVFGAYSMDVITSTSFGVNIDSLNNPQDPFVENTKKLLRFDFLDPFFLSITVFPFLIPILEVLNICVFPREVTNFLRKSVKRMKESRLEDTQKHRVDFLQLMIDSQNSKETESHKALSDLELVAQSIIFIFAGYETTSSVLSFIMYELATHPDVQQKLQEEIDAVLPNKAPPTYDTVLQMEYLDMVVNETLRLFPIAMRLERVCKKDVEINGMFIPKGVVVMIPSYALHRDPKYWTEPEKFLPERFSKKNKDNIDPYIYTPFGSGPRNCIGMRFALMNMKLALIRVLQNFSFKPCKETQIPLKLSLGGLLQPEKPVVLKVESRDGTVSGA

Cytochrome P450 2D6 = Cytochrome P450 2D6 (Homo sapiens, UniProt P10635); experiment: (§1) Inhibition of CYP2D6 (unknown origin); assay type: ADME
Chain of Cytochrome P450 2D6 (P10635 whole entry): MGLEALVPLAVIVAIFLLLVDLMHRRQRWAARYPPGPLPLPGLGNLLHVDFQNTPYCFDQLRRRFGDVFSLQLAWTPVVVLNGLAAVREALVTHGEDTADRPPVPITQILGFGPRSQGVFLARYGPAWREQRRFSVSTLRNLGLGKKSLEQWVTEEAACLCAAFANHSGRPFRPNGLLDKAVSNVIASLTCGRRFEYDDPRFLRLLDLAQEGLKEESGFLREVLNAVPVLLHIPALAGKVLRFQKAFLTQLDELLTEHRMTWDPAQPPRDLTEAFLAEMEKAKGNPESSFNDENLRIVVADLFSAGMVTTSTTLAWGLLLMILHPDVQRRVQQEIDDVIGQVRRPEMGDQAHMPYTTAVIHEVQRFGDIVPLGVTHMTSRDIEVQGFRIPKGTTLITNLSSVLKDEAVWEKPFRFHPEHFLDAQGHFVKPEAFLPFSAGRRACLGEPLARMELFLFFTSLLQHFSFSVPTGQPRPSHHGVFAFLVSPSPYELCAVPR

Cytochrome P450 1A2 = target: T1, Cytochrome P450 1A2 (Homo sapiens, UniProt P05177); experiment: Inhibition of CYP1A2 (unknown origin); assay type: ADME
T1 sequence (P05177 whole entry): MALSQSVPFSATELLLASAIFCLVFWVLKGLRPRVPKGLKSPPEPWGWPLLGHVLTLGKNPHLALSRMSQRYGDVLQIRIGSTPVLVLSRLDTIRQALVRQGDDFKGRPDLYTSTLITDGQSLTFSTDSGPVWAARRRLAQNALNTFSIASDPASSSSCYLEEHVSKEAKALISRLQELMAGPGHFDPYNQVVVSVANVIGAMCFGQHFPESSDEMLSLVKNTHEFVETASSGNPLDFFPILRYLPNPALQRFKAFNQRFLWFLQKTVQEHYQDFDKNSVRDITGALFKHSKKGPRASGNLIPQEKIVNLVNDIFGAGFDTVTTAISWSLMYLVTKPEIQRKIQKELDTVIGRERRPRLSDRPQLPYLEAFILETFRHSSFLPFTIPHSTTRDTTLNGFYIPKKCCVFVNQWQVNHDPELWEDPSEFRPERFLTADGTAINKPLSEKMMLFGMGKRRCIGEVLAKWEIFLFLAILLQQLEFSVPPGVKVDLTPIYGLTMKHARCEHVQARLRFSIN

[2] = Cytotoxicity against human HCT116 cells assessed as cell growth inhibition; assay type: functional; conditions: HCT-116
Aurora kinase A = target: T2, Aurora kinase A (Homo sapiens, UniProt O14965); experiment: Inhibition of recombinant Aurora A kinase derived from human Hela cells using kemptide as substrate in presence of [c-32P]ATP
T2 sequence (O14965 whole entry): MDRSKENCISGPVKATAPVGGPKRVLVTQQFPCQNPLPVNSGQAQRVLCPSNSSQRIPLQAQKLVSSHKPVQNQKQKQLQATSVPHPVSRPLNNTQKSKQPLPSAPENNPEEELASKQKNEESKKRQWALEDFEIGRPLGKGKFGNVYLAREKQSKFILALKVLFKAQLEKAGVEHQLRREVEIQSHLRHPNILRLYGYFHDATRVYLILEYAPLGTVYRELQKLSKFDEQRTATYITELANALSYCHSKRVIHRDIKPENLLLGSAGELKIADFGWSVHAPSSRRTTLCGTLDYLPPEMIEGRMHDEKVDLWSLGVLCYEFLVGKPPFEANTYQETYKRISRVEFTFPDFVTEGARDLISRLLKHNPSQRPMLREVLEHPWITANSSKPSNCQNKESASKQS

Aurora kinase B = Aurora kinase B (Homo sapiens, UniProt Q96GD4); experiment: Inhibition of Aurora 1 kinase (unknown origin)
Chain of Aurora kinase B (Q96GD4 whole entry): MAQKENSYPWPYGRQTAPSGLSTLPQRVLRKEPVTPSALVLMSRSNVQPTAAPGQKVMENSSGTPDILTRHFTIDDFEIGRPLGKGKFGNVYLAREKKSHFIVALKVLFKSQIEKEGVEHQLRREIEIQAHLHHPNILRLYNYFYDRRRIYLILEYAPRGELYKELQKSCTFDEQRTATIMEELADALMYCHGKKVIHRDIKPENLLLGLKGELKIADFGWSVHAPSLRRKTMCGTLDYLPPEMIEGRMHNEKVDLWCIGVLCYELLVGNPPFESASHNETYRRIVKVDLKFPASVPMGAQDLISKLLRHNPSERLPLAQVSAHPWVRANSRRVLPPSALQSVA

[3] = target: Proto-oncogene tyrosine-protein kinase Src (Homo sapiens, UniProt P12931); experiment: Inhibition of cSRC (unknown origin)
[4] = target: Fibroblast growth factor receptor 1 (Homo sapiens, UniProt P11362); experiment: Inhibition of FGFR1 (unknown origin)
Chain of Fibroblast growth factor receptor 1 (P11362 whole entry): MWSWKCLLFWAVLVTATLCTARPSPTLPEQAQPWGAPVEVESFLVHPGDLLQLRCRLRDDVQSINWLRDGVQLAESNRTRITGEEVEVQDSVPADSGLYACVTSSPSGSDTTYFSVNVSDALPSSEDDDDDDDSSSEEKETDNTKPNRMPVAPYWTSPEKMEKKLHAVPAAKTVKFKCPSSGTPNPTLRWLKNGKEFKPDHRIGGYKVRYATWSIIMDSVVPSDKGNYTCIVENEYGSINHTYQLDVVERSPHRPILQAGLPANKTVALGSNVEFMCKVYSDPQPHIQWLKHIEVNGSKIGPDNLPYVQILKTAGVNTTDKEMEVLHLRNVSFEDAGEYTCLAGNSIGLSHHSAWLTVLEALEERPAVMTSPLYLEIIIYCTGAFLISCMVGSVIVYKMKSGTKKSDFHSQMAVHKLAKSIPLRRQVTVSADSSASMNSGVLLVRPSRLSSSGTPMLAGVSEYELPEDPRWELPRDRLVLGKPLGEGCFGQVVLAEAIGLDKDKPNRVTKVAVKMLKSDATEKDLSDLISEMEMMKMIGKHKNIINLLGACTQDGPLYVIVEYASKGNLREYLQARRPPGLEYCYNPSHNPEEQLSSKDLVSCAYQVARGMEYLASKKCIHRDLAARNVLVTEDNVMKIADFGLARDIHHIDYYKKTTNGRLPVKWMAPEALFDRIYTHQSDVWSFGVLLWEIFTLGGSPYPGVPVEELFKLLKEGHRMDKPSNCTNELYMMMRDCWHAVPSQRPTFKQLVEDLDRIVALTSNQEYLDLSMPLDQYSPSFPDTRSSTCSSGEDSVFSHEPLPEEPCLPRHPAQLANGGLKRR

[5] = target: Tyrosine-protein kinase Fyn (Homo sapiens, UniProt P06241); experiment: Inhibition of FYN (unknown origin)
[6] = target: Vascular endothelial growth factor receptor 2 (Homo sapiens, UniProt P35968); experiment: Inhibition of KDR (unknown origin)
Chain of Vascular endothelial growth factor receptor 2 (P35968 whole entry): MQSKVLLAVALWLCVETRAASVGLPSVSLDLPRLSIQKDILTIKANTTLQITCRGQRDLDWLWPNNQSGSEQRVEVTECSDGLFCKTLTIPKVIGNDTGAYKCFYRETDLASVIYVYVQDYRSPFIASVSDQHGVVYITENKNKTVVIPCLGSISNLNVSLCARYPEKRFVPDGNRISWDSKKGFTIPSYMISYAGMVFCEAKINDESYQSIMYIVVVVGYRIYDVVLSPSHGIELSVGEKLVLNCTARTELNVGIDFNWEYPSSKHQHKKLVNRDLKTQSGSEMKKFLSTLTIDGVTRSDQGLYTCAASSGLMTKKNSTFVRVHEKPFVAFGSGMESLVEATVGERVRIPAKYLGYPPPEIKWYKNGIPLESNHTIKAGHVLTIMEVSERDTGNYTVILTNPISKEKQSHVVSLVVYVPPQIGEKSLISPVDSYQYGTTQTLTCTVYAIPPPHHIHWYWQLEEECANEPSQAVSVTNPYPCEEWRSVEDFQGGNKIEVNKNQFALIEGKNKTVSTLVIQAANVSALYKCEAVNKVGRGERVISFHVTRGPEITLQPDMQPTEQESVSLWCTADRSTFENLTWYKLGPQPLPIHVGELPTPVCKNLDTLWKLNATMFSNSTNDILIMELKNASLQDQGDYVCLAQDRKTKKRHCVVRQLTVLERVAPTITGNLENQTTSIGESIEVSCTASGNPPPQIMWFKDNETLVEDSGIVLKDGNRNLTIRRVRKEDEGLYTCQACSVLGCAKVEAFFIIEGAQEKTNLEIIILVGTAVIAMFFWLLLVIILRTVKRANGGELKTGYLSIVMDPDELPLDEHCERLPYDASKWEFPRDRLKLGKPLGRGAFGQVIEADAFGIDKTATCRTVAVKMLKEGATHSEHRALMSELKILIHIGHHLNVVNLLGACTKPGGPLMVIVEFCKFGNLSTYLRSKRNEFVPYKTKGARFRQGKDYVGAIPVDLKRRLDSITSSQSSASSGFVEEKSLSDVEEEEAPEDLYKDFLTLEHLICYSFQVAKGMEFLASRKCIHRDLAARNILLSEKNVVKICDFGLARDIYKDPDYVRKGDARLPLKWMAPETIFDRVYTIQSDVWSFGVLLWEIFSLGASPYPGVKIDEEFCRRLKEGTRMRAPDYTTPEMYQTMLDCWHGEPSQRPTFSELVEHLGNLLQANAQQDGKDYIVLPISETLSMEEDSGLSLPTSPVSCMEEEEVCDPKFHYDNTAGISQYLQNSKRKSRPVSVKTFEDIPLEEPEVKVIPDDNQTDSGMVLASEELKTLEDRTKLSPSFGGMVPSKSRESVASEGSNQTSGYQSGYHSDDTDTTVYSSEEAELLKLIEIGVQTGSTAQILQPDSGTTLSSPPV

[7] = target: Tyrosine-protein kinase Lyn (Homo sapiens, UniProt P07948); experiment: Inhibition of LYN (unknown origin)
[8] = target: Tyrosine-protein kinase Yes (Homo sapiens, UniProt P07947); experiment: Inhibition of YES (unknown origin)
Chain of Tyrosine-protein kinase Yes (P07947 whole entry): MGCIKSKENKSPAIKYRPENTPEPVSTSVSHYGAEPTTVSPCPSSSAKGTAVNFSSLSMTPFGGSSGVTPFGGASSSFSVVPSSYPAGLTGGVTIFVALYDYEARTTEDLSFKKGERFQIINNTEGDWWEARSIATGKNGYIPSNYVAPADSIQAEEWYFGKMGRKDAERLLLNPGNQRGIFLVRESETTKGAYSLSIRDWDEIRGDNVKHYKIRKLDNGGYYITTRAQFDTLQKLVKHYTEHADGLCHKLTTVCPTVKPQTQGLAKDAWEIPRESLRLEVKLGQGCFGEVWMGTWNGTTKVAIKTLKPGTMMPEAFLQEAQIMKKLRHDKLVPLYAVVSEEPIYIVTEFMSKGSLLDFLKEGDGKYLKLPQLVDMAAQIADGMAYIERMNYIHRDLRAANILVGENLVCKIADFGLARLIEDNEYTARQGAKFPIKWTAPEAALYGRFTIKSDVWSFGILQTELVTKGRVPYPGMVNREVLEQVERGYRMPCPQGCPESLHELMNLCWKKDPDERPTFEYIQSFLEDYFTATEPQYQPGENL

[9] = Antitumor activity against human HCT116 cells xenografted subcutaneously in mouse assessed as tumor growth inhibition at 30 mg/kg, po qd after 14 days; assay type: functional; conditions: HCT-116, 336 h, read-out: TGI
[10] = AUC in rat at 30 mg/kg, po; assay type: ADME, organism-based; conditions: in vivo
[11] = Tmax in rat at 30 mg/kg, po; assay type: ADME, organism-based; conditions: in vivo
[12] = Cmax in rat at 30 mg/kg, po; assay type: ADME, organism-based; parameters: dose 30 mg/kg, route oral; conditions: in vivo
[13] = Antitumor activity against human PC3 cells xenografted subcutaneously in mouse assessed as tumor growth inhibition at 30 mg/kg, po qd for 14 days; assay type: functional; conditions: PC-3, 336 h, read-out: TGI
[14] = Antitumor activity against mouse CT26 cells allografted subcutaneously in mouse assessed as tumor growth inhibition at 30 mg/kg, po qd for 14 days; assay type: functional; conditions: CT26, 336 h, read-out: TGI
[15] = Antitumor activity against human HCT116 cells xenografted subcutaneously in mouse assessed as tumor growth inhibition at 40 mg/kg, po qd administered on day 1, 5, 9, 13, 16 relative to control; assay type: functional; conditions: HCT-116, read-out: TGI
[16] = Antitumor activity against human HCT116 cells xenografted subcutaneously in mouse assessed as tumor growth inhibition at 20 mg/kg, po qd administered on day 1, 5, 9, 13, 16 relative to control; assay type: functional; conditions: HCT-116, read-out: TGI
CYP2D6 = CYP2D6 (Homo sapiens, UniProt P10635); experiment: as §1; assay type: ADME

Structure (SMILES)	IC50 (Cytochrome P450 2C19) [nM]	IC50 (Cytochrome P450 2C9) [nM]	IC50 (Cytochrome P450 3A4) [nM]	IC50 (Cytochrome P450 2D6) [nM]	IC50 (Cytochrome P450 1A2) [nM]	Ki (Aurora kinase A) [nM]	GI50 [2] [nM]	further results
CC(=O)O[C@H]1C(=O)[C@@]2(C)[C@H]([C@H](OC(=O)c3ccccc3)[C@]3(O)C[C@H](OC(=O)[C@H](O)[C@@H](NC(=O)c4ccccc4)c4ccccc4)C(C)=C1C3(C)C)[C@]1(OC(C)=O)CO[C@@H]1C[C@@H]2O [PACLITAXEL]								Activity (Mus musculus): Toxic; inhibition in vivo at 25 mg/kg [1]: 24.8%
Cc1ccc(OCCNc2nc(Nc3cc(C)[nH]n3)cc(C)c2C#N)cn1	4500	4900	4500	> 50000	2000	4	1	Ki (Aurora kinase B): 10 nM; Ki [3]: 480 nM; Ki [4]: 80 nM; Ki [5]: 80 nM; Ki [6]: 590 nM; Ki [7]: 490 nM; Ki [8]: 79 nM; inhibition in vivo at 30 mg/kg [9]: 81.9%; AUC [10]: 14.6 µg/mL; Tmax [11]: 15 min; Cmax [12]: 19600 ng/mL; inhibition in vivo at 30 mg/kg [13]: 85%; inhibition in vivo at 30 mg/kg [14]: 47.8%; inhibition in vivo at 40 mg/kg [15]: 71%; inhibition in vivo at 20 mg/kg [16]: 44%
Cc1cc(Nc2cc(C)c(C#N)c(NCCOc3cccnc3)n2)n[nH]1			< 400	9900	700		2	
CCc1ccc(OCCNc2nc(Nc3cc(C)[nH]n3)cc(C)c2C#N)cn1	800	1400	1600	46000	1400	6	66	
Cc1cc(Nc2cc(C)c(C#N)c(N[C@@H](C)CCCC(C)(C)O)n2)n[nH]1	< 400	1700			55000	< 1	52	IC50 (CYP2D6): < 50000 nM
Cc1ccc(OCCNc2nc(Nc3cc(C)[nH]n3)cc(C)c2C#N)c(C)n1	1700	3500	1700	> 50000	> 50000		37	
Cc1cc(Nc2cc(C)c(C#N)c(NCCOc3ccccn3)n2)n[nH]1			7200	29000	< 400		67	
Cc1cc(Nc2cc(C)c(C#N)c(NCCOc3ccncc3)n2)n[nH]1			< 400	2000	< 400	29	120	

Further lines, with some results ahead:

IC50 (Cytochrome P450 2C19) [nM]	IC50 (Cytochrome P450 2C9) [nM]	IC50 (Cytochrome P450 3A4) [nM]	IC50 (Cytochrome P450 2D6) [nM]	IC50 (Cytochrome P450 1A2) [nM]	Ki (Aurora kinase A) [nM]	Structure (SMILES)	GI50 [2] [nM]	further results
900	2400	1800	> 50000	5500		Cc1cc(Nc2cc(C)c(C#N)c(NCCOc3cccnc3C)n2)n[nH]1	4	
		1600	7700	< 400	< 1	Cc1cc(Nc2cc(C)c(C#N)c(NCCOc3ccccc3F)n2)n[nH]1	26	
< 400	< 200	1200	6500	500		Cc1cc(Nc2cc(C)c(C#N)c(NCCOc3ccccc3Cl)n2)n[nH]1	9	
		1400	7200	< 400	2	Cc1cc(Nc2cc(C)c(C#N)c(NCCOc3ccccc3)n2)n[nH]1	11	
